These results are taken from paper PMC6749389, “Synthesis and In Vitro Anti-Toxoplasma gondii Activity of Novel Thiazolidin-4-one Derivatives” (Molecules, 2019).

Each structure is given as a SMILES string.

A short description of data set [1]: Cytotoxic assay (MTT, ISO 10993-5:2009(E)), 24 h treatment. It counts as cell-based. As to conditions: L929 mouse fibroblast cells, L929 mouse fibroblasts, values above highest tested concentration extrapolated. As to the method:
The L929 mouse fibroblast (ATTC® CCL-1™, Manassas, VA, USA) were culturing according to the ATCC product sheet. […] The cell viability assay were performed precisely according to international standards (ISO 10993-5:2009(E)), using the tetrazolium salt [3-(4,5-dimethylthiazol-2-yl)-2,5-diphenyltetrazolium bromide] (MTT, Sigma-Aldrich) and mouse fibroblasts L929 cells. Cells (1 × 10^4 per well) were treated 24 h with compounds or drug in different concentration range. The optical density at 570 nm on the ELISA reader (Multiskan EX, Labsystems, Vienna, VA, USA), was read. The results were expressed as a percentage of viability compared to untreated cells. […] The CC30/CC50 represents the concentration of tested compounds or drugs that was required for 30% or 50% cells proliferation inhibition in vitro. According to the previously mentioned ISO 10993-5:2009(E) norm, the CC30 value is recognized as non-cytotoxic concentration for the cell line. All experiments were performed in triplicate.

Data set [2] has as its system T. gondii tachyzoites (RH strain). Kind of data set: In vitro anti-T. gondii activity, [3H]-uracil incorporation assay in infected Hs27 cells. It counts as cell-based, Toxoplasma gondii. As to conditions: for IC50: Toxoplasma gondii, T. gondii RH tachyzoites proliferation in Hs27 cells, na = not active in the tested concentration range; for SR (selectivity ratio): ratio of CC50 (L929) to IC50 (T. gondii); for inhibition of proliferation, fold better (lower IC50) than sulfadiazine: relative to sulfadiazine; for inhibition of proliferation, fold better than sulfadiazine + trimethoprim (5:1): relative to sulfadiazine + trimethoprim (5:1).

In turn, `O=C(O)CC1SC(=NN=Cc2cccc(O)c2)N(c2ccccc2)C1=O` (stereo not shown) [Compound 75, [2-{[(3-Hydroxyphenyl)methylidene]hydrazinylidene}-4-oxo-3-phenyl-1,3-thiazolidin-5-yl]acetic acid] had a melting point of 214 to 216 °C. Also, in data set [1], the CC50 at 24 h was ≥ 1000 µM.

On to `O=C(O)CC1SC(=NN=Cc2ccc(O)cc2)N(c2ccccc2)C1=O` (stereo not shown) [Compound 76, [2-{[(4-Hydroxyphenyl)methylidene]hydrazinylidene}-4-oxo-3-phenyl-1,3-thiazolidin-5-yl]acetic acid], for which the melting point lay within 236 to 238 °C. Also, the CC50 at 24 h in data set [1] is ≥ 1000 µM.

Regarding `CCOc1cc(C=NN=C2SC(CC(=O)O)C(=O)N2c2ccccc2)ccc1O` (stereo not shown) [Compound 78, [2-{[(3-Ethoxy-4-hydroxyphenyl)methylidene]hydrazinylidene}-4-oxo-3-phenyl-1,3-thiazolidin-5-yl]acetic acid], the melting point was in the range of 224 to 226 °C. Besides, in data set [1], the CC50 at 24 h was ≥ 1000 µM.

Take `O=C(O)CC1SC(=NN=Cc2ccc(O)c(Cl)c2)N(c2ccccc2)C1=O` (stereo not shown) [Compound 79, [2-{[(3-Chloro-4-hydroxyphenyl)methylidene]hydrazinylidene}-4-oxo-3-phenyl-1,3-thiazolidin-5-yl]acetic acid]: the melting point fell in the range of 244 to 246 °C. Also, the CC50 at 24 h in data set [1] was ≥ 1000 µM.

`O=C(O)CC1SC(=NN=Cc2ccc(O)c(Br)c2)N(c2ccccc2)C1=O` (stereo not shown) [Compound 80, [2-{[(3-Bromo-4-hydroxyphenyl)methylidene]hydrazinylidene}-4-oxo-3-phenyl-1,3-thiazolidin-5-yl]acetic acid] yielded a melting point of 252 to 254 °C. Also, in data set [1], the CC50 at 24 h was ≥ 1000 µM.

Molecule `O=C(O)CC1SC(=NN=Cc2cccc(O)c2)N(c2ccc(Cl)cc2)C1=O` (stereo not shown) [Compound 82, [3-(4-Chlorophenyl)-2-{[(3-hydroxyphenyl)methylidene]hydrazinylidene}-4-oxo-1,3-thiazolidin-5-yl]acetic acid] registered a melting point of 226 to 228 °C. Further, the cytotoxic concentration (CC50) at 24 h in data set [1] is 656 µM. In data set [2], half-maximal inhibition (IC50) was put at 263 µM and the “SR (selectivity ratio)” value is reported as 2.49.

With `O=C(O)CC1SC(=NN=Cc2ccc(O)cc2)N(c2ccc(Cl)cc2)C1=O` (stereo not shown) [Compound 83, [3-(4-Chlorophenyl)-2-{[(4-hydroxyphenyl)methylidene]hydrazinylidene}-4-oxo-1,3-thiazolidin-5-yl]acetic acid], the melting point is 234 to 235 °C. Besides, the CC50 at 24 h in data set [1] is 906 µM. In data set [2], the half-inhibitory concentration (IC50) worked out at 271 µM and the “SR (selectivity ratio)” value worked out at 3.34.

The molecule `COc1cc(C=NN=C2SC(CC(=O)O)C(=O)N2c2ccc(Cl)cc2)ccc1O` (stereo not shown) [Compound 84, [3-(4-Chlorophenyl)-2-{[(4-hydroxy-3-methoxyphenyl)methylidene]hydrazinylidene}-4-oxo-1,3-thiazolidin-5-yl]acetic acid] registered a melting point of 254 to 256 °C. Also, the CC50 at 24 h in data set [1] is 827 µM. In addition, in data set [2], half-maximal inhibition (IC50) required 220 µM and the “SR (selectivity ratio)” value is 3.76.

The molecule `CCOc1cc(C=NN=C2SC(CC(=O)O)C(=O)N2c2ccc(Cl)cc2)ccc1O` (stereo not shown) [Compound 85] had a melting point of 224 to 226 °C. Besides, in data set [1], the CC50 at 24 h is 759 µM. Besides, in data set [2], the half-maximal inhibitory concentration (IC50) was found to be 165 µM and the “SR (selectivity ratio)” value is on record as 4.59.

Regarding `O=C(O)CC1SC(=NN=Cc2ccc(O)c(Cl)c2)N(c2ccc(Cl)cc2)C1=O` (stereo not shown) [Compound 86, [2-{[(3-Chloro-4-hydroxyphenyl)methylidene]hydrazinylidene}-3-(4-chlorophenyl)-4-oxo-1,3-thiazolidin-5-yl]acetic acid], the melting point lay in the range of 256 to 257 °C. The CC50 at 24 h in data set [1] is ≥ 1000 µM. In data set [2], the IC50 is 178 µM and the “SR (selectivity ratio)” value was ≥5.63.

In turn, `O=C(O)CC1SC(=NN=Cc2ccc(O)c(Br)c2)N(c2ccc(Cl)cc2)C1=O` (stereo not shown) [Compound 87, [2-{[(3-Bromo-4-hydroxyphenyl)methylidene]hydrazinylidene}-3-(4-chlorophenyl)-4-oxo-1,3-thiazolidin-5-yl]acetic acid] registered a melting point of 254 to 255 °C. Moreover, the cytotoxic concentration (CC50) at 24 h in data set [1] is 425 µM. Also, in data set [2], the IC50 stood at 116 µM; the “SR (selectivity ratio)” value was found to be 3.66; the “inhibition of proliferation, fold better (lower IC50) than sulfadiazine” value was “about 90 fold”.

`COc1cc(C=NN=C2SC(CC(=O)O)C(=O)N2c2ccc(Cl)cc2Cl)ccc1O` (stereo not shown) [Compound 88, [3-(2,4-Dichlorophenyl)-2-{[(4-hydroxy-3-methoxyphenyl)methylidene]hydrazinylidene}-4-oxo-1,3-thiazolidin-5-yl]acetic acid] showed a melting point of 226 to 228 °C. Further, the CC50 at 24 h in data set [1] was 566 µM. Moreover, in data set [2], half-maximal inhibition (IC50) required 129 µM; the “SR (selectivity ratio)” value stood at 4.37; the “inhibition of proliferation, fold better (lower IC50) than sulfadiazine” value is listed as “about 90 fold”.

`COC(=O)C=C1SC(=NN=Cc2ccccc2O)N(c2ccccc2)C1=O` [Compound 89, Methyl [2-{[(2-hydroxyphenyl)methylidene]hydrazinylidene}-4-oxo-3-phenyl-1,3-thiazolidin-5-ylidene]acetate] gave a melting point of 242 to 244 °C. Also, the CC50 at 24 h in data set [1] was 304 µM.

The molecule `COC(=O)C=C1SC(=NN=Cc2cccc(O)c2)N(c2ccccc2)C1=O` [Compound 90, Methyl [2-{[(3-hydroxyphenyl)methylidene]hydrazinylidene}-4-oxo-3-phenyl-1,3-thiazolidin-5-ylidene]acetate] had a melting point of 236 to 238 °C. In data set [1], the cytotoxic concentration (CC50) at 24 h was 234 µM.

With `COC(=O)C=C1SC(=NN=Cc2ccc(O)cc2)N(c2ccccc2)C1=O` [Compound 91, Methyl [2-{[(4-hydroxyphenyl)methylidene]hydrazinylidene}-4-oxo-3-phenyl-1,3-thiazolidin-5-ylidene]acetate], the melting point lay in the range of 222 to 224 °C. In addition, in data set [1], the CC50 at 24 h was 493 µM. For the same molecule, in data set [2], inhibition was half-maximal at 92.9 µM (IC50) and the “SR (selectivity ratio)” value came to 5.31.

Take `COC(=O)C=C1SC(=NN=Cc2ccc(O)c(OC)c2)N(c2ccccc2)C1=O` [Compound 92, Methyl [2-{[(4-hydroxy-3-methoxyphenyl)methylidene]hydrazinylidene}-4-oxo-3-phenyl-1,3-thiazolidin-5-ylidene]acetate]: the melting point fell in the range of 210 to 212 °C. In data set [1], the CC50 at 24 h was 486 µM. In data set [2], it took 180 µM to reach half-maximal inhibition (IC50) and the “SR (selectivity ratio)” value was determined as 2.69.

Take `CCOc1cc(C=NN=C2SC(=CC(=O)OC)C(=O)N2c2ccccc2)ccc1O` [Compound 93, Methyl [2-{[(3-ethoxy-4-hydroxyphenyl)methylidene]hydrazinylidene}-4-oxo-3-phenyl-1,3-thiazolidin-5-ylidene]acetate]: the melting point was 190 to 192 °C. Besides, the CC50 at 24 h in data set [1] is 463 µM. Also, in data set [2], half-maximal inhibition (IC50) was put at 191 µM and the “SR (selectivity ratio)” value worked out at 2.42.

`COC(=O)C=C1SC(=NN=Cc2ccc(O)c(Cl)c2)N(c2ccccc2)C1=O` [Compound 94, Methyl [2-{[(3-chloro-4-hydroxyphenyl)methylidene]hydrazinylidene}-4-oxo-3-phenyl-1,3-thiazolidin-5-ylidene]acetate] returned a melting point of 238 to 240 °C. Moreover, in data set [1], the CC50 at 24 h is 474 µM. For the same molecule, in data set [2], the half-inhibitory concentration (IC50) was 27.7 µM; the “SR (selectivity ratio)” value stood at 17.07; the “inhibition of proliferation, fold better than sulfadiazine + trimethoprim (5:1)” value came to 18 fold.

The molecule `COC(=O)C=C1SC(=NN=Cc2ccc(O)c(Br)c2)N(c2ccccc2)C1=O` [Compound 95, Methyl [2-{[(3-bromo-4-hydroxyphenyl)methylidene]hydrazinylidene}-4-oxo-3-phenyl-1,3-thiazolidin-5-ylidene]acetate] gave a melting point of 236 to 238 °C. The CC50 at 24 h in data set [1] is 428 µM. In data set [2], the midpoint of inhibition, the IC50, lay at 28.3 µM; the “SR (selectivity ratio)” value is given as 15.11; the “inhibition of proliferation, fold better than sulfadiazine + trimethoprim (5:1)” value was determined as 18 fold.

`COC(=O)C=C1SC(=NN=Cc2cccc(O)c2)N(c2ccc(Cl)cc2)C1=O` [Compound 98, Methyl [3-(4-chlorophenyl)-2-{[(3-hydroxyphenyl)methylidene]hydrazinylidene}-4-oxo-1,3-thiazolidin-5-ylidene]acetate] registered a melting point of 222 to 224 °C. The cytotoxic concentration (CC50) at 24 h in data set [1] was 167 µM.

`COC(=O)C=C1SC(=NN=Cc2ccc(O)cc2)N(c2ccc(Cl)cc2)C1=O` [Compound 99, Methyl [3-(4-chlorophenyl)-2-{[(4-hydroxyphenyl)methylidene]hydrazinylidene}-4-oxo-1,3-thiazolidin-5-ylidene]acetate] had a melting point of 250 to 251 °C. The CC50 at 24 h in data set [1] was 230 µM.

As for `Nc1ccc(S(=O)(=O)Nc2ncccn2)cc1` [Sulfadiazine, 4-amino-N-(2-pyrimidinyl)benzenesulfonamide, reference compound], in data set [1], the CC50 at 24 h is ≥ 10000 µM. Further, in data set [2], the IC50 was determined as 10900 µM and the “SR (selectivity ratio)” value is ≥0.92.

As usually defined, the CC50 is the concentration at which the toxic effect on the cells reaches its halfway point. As a reminder, the melting point is the temperature, or range, at which the solid turns liquid. As a reminder, the IC50 is the concentration that gives 50% inhibition.
